According to patent publication US4218439A, “Peptide which inhibits gonadal function” (The Salk Institute for Biological Studies, priority 1978, dated 1980):

Assays:
[1] = system: release of luteinizing hormone and other gonadotropins by the pituitary gland; conditions: compared with Gly6 peptide; cited from earlier work
male rats [2] = assay: treatment of male rats with the peptide once a day: organ weights, plasma hormones, histology, fertility; type: in vivo, rat
From the text: It has been determined that the treatment of male rats with 10 micrograms of the peptide once a day for 7 days results in a decrease in testis and seminal vesicle weight, spermatogenesis and plasma androgen levels. However, immunoreactive gonadotropin levels in the treated male animals were elevated relative to control animals.

male rats [3] = assay: as above; type: in vivo, rat; conditions: 10 μG peptide for 15 days (Table I)
male mammals = assay: effective dosage level and recovery after cessation of 7-day treatment; type: in vivo
From the text: The peptide is used at a level effective to prevent reproduction by male mammals. It has been determined that the peptide of the invention is effective at levels as low as 0.5 microgram per kilogram of body weight per day for 7 days to reduce testes and seminal vesicle weights. […] Prostate weights recover in 2 weeks and seminal vesicle weights in 4 weeks. It is preferred to use dosage levels in the range of from about 0.5 to about 50 micrograms per kilogram of body weight per day. Higher levels can be used but no significant benefit is attained through use of higher levels.

[4] = system: release of gonadotropins by the pituitary gland; assay: potency of the peptide compared with LRF; conditions: times more potent than LRF
From the text: The peptide can be used as a contraceptive for male mammals. The peptide can be administered by any suitable and convenient method, such as orally, by injection or subcutaneously. The peptide can be combined with suitable pharmaceutically acceptable carriers or diluents, such as vegetable oil, sugars, polysaccharides and gums.

female rats = conditions: large and frequent dosages; cited from earlier work
[5] = following cessation of the injections
[6] = male rats, 10 micrograms once a day for 7 days
[7] = following cessation of treatment for 7 days

Which “potency as an inhibitor for the release of gonadotropins relative to the same peptide with Gly in the 6-position” value [1] does the source give for “p--Glu--Trp--Ser--Tyr--D--Ala--Leu--Arg--Pro--Gly--NH2” here?
The value was 3 times.

Which “ability to cause fertilization” value (male rats [2]; [5]) does the source give for `CCNC(=O)[C@@H]1CCCN1C(=O)[C@H](CCCNC(=N)N)NC(=O)[C@H](CC(C)C)NC(=O)[C@@H](Cc1c[nH]c2ccccc12)NC(=O)[C@H](Cc1ccc(O)cc1)NC(=O)[C@H](CO)NC(=O)[C@H](Cc1c[nH]c2ccccc12)NC(=O)[C@H](Cc1c[nH]cn1)NC(=O)[C@@H]1CCC(=O)N1` [peptide, p--Glu--His--Trp--Ser--Tyr--D--Trp--Leu--Arg--Pro--NH--CH2 --CH3] here?
Its value is “incapable of causing fertilization”.

And the “ability to effect coitus” value (male rats [2]; [5])?
The value was “capable of effecting coitus”.

And the “histological examination of the testes” value (male rats [2]; following the 7-day treatment, up to several weeks following cessation of daily injections)?
The value was “tubular damage, arrested spermatogenesis and degenerated Sertoli cells”.

What about the “immunoreactive gonadotropin levels relative to control animals” value (male rats [2]; [6]) of the same compound?
Its value is “elevated”.

What about the “testis and seminal vesicle weight, spermatogenesis and plasma androgen levels” value (male rats [2]; [6]) of the same compound?
The value was “decrease”.

What about the “Plasma DHT” value (male rats [3]) of the same compound?
The value was 151 ng/mL.

And the “Plasma FSH” value (male rats [3])?
The value was 1582 ng/mL.

What about the “Plasma LH” value (male rats [3]) of the same compound?
The value was 561 ng/mL.

What about the “Plasma Test.” value (male rats [3]) of the same compound?
The value was 229 ng/mL.

What about the “Wt. Sem. V.” value (male rats [3]) of the same compound?
The value was 0.18 Grams.

And the “Wt. Testis” value (male rats [3])?
Its value is 1.33 Grams.

And the “time for prostate weights to recover” value (male mammals; [7])?
Its value is 2 weeks.

What about the “time for seminal vesicle weights to recover” value (male mammals; [7]) of the same compound?
The value was 4 weeks.

And the “time until testosterone levels comparable to those of control animals” value (male mammals; [7])?
Its value is “one”.

And the “level effective to reduce testes and seminal vesicle weights” value (male mammals; for 7 days)?
Its value is ≤ 0.5 microgram per kilogram of body weight per day.

And the “potency relative to LRF” value [4]?
The value was “about 150 times”.

Which “effect on gonadal function” value (female rats) does the source give for “p--Glu--His--Trp--Ser--Tyr--Gly--Leu--Arg--Pro--Gly--NH2 (EHWSYGLRPG; pyroglutamyl N-terminus, C-terminal amide; printed: Glu--His--Trp--Ser--Tyr--Gly--Leu--Arg--Pro--Gly--) [LRF, hypothalamic hormone which acts as a releasing factor for LH; decapeptide]” here?
The value was “inhibit gonadal function”.
